# Measured values taken from ChEMBL document CHEMBL1821610 (Bioorg Med Chem Lett, 2011).
# Key:
# [1] = Volume of distribution in Beagle dog at 0.05 mg/kg, iv; format: ADME, organism-based, Canis lupus familiaris; set-up: dose 0.05 mg/kg, route intravenous; conditions: in vivo
# [2] = Half life in CD1 mouse at 0.2 mg/kg, iv; format: ADME, organism-based; set-up: dose 0.2 mg/kg, route intravenous; conditions: in vivo
# [3] = Half life in Beagle dog at 0.05 mg/kg, iv; format: ADME, organism-based, Canis lupus familiaris; set-up: dose 0.05 mg/kg, route intravenous; conditions: in vivo
# [4] = Solubility of the compound in simulated gastric fluid at pH 1.2; format: physicochemical; conditions: simulated gi fluid
# Mus musculus = experiment: Cmax in CD1 mouse at 10 mg/kg, po; format: ADME, organism-based; set-up: dose 10 mg/kg, route oral; conditions: in vivo
# [5] = Clearance in CD1 mouse at 0.2 mg/kg, iv; format: ADME, organism-based; set-up: dose 0.2 mg/kg, route intravenous; conditions: in vivo
# [6] = Clearance in Beagle dog at 0.05 mg/kg, iv; format: ADME, organism-based, Canis lupus familiaris; set-up: dose 0.05 mg/kg, route intravenous; conditions: in vivo
# [7] = Solubility of the compound in PBS at pH 7.4; format: physicochemical
# [8] = Dissociation constant, pKa of the compound; format: physicochemical
# [9] = Partition coefficient, log P of the compound; format: physicochemical; conditions: octanol/water
# [10] = Chromatographic hydrophobicity index of the compound at pH 7.4 by rapid gradient HPLC analysis; format: physicochemical
# [11] = Chromatographic hydrophobicity index of the compound at pH 10.5 by rapid gradient HPLC analysis; format: physicochemical
# [12] = Solubility of the compound in fed state simulated intestinal fluid at pH 5.0; format: physicochemical
# Plasmodium falciparum [13] = experiment: Antimalarial activity against Plasmodium falciparum in po dosed HM-IL2R gamma null mouse assessed as reduction in parasitemia administered once a day for 4 days; format: functional; conditions: 96 h
# [14] = Oral bioavailability in Beagle dog at 2 mg/kg; format: ADME, organism-based, Canis lupus familiaris; conditions: in vivo
# [15] = Solubility of the compound in fasted state simulated intestinal fluid at pH 6.8; format: physicochemical
# Canis familiaris = experiment: Cmax in Beagle dog at 2 mg/kg, po; format: ADME, organism-based, Canis lupus familiaris; set-up: dose 2 mg/kg, route oral; conditions: in vivo
# Plasmodium falciparum [16] = experiment: Antimalarial activity against Plasmodium falciparum infected in A-positive human erythrocytes assessed as [3H]-hypoxanthine uptake after 24 hrs by liquid scintillation counter; format: functional, organism-based
# [17] = Volume of distribution in CD1 mouse at 0.2 mg/kg, iv; format: ADME, organism-based; set-up: dose 0.2 mg/kg, route intravenous; conditions: in vivo
# [18] = Oral bioavailability in CD1 mouse at 10 mg/kg; format: ADME, organism-based; conditions: in vivo
# [19] = Chromatographic hydrophobicity index of the compound at pH 2 by rapid gradient HPLC analysis; format: physicochemical
smiles,measurement,setting,value
Cc1[nH]c(CO)c(-c2ccc(Oc3ccc(OC(F)(F)F)cc3)cc2)c(=O)c1Cl,Vd,[1],2.8 L/kg
same,half-life,[2],3.8 h
same,half-life,[3],42 h
same,solubility,[4],0.372 mg/mL
same,Cmax,Mus musculus,1.1 µg/mL
same,clearance,[5],0.18 L/h/kg
same,clearance,[6],0.048 L/h/kg
same,solubility,[7],< 0.1 mg/mL
same,pKa,[8],9.73
same,logP,[9],4.4
same,CHI,[10],2.42
same,CHI,[11],2.2
same,solubility,[12],2.34 mg/mL
same,ED50,Plasmodium falciparum [13],0.6 mg/kg
same,bioavailability,[14],16%
same,solubility,[15],0.69 mg/mL
same,Cmax,Canis familiaris,0.3 µg/mL
same,IC50,Plasmodium falciparum [16],0.002 µM
same,Vd,[17],1 L/kg
same,bioavailability,[18],50%
same,CHI,[19],2.43
Cc1[nH]c(CN(C)C)c(Cl)c(=O)c1-c1ccc(Oc2ccc(OC(F)(F)F)cc2)cc1,IC50,Plasmodium falciparum [16],> 0.25 µM
Cc1[nH]c(CO)c(Cl)c(=O)c1-c1ccc(Oc2ccc(OC(F)(F)F)cc2)cc1,IC50,Plasmodium falciparum [16],0.13 µM
Cc1[nH]c(CO)c(Cl)c(=O)c1-c1ccc(Oc2cccc(C(F)(F)F)c2)cc1,IC50,Plasmodium falciparum [16],0.12 µM
Cc1[nH]c(CN2CCCC2)c(Cl)c(=O)c1-c1ccc(Oc2ccc(OC(F)(F)F)cc2)cc1,IC50,Plasmodium falciparum [16],> 0.25 µM
Cc1[nH]c(CN2CCOCC2)c(Cl)c(=O)c1-c1ccc(Oc2ccc(OC(F)(F)F)cc2)cc1,IC50,Plasmodium falciparum [16],> 0.25 µM
Cc1[nH]c(CO)c(-c2ccc(Oc3cccc(C(F)(F)F)c3)cc2)c(=O)c1Cl,IC50,Plasmodium falciparum [16],0.003 µM
Cc1[nH]c(CN(C)C)c(-c2ccc(Oc3ccc(OC(F)(F)F)cc3)cc2)c(=O)c1Cl,IC50,Plasmodium falciparum [16],> 0.25 µM
Cc1[nH]c(CN2CCCC2)c(-c2ccc(Oc3ccc(OC(F)(F)F)cc3)cc2)c(=O)c1Cl,IC50,Plasmodium falciparum [16],> 0.25 µM
Cc1[nH]c(CN2CCOCC2)c(-c2ccc(Oc3ccc(OC(F)(F)F)cc3)cc2)c(=O)c1Cl,IC50,Plasmodium falciparum [16],> 0.25 µM
Cc1[nH]c(C(=O)O)c(-c2ccc(Oc3ccc(OC(F)(F)F)cc3)cc2)c(=O)c1Cl,IC50,Plasmodium falciparum [16],> 0.25 µM
Cc1[nH]c(C(=O)N(C)C)c(-c2ccc(Oc3ccc(OC(F)(F)F)cc3)cc2)c(=O)c1Cl,IC50,Plasmodium falciparum [16],> 0.25 µM
Cc1[nH]c(C)c(-c2ccc(Oc3ccc(OC(F)(F)F)cc3)cc2)c(=O)c1Cl,Vd,[1],2.9 L/kg
same,half-life,[2],24.1 h
same,half-life,[3],143 h
same,solubility,[4],0.287 mg/mL
same,Cmax,Mus musculus,0.9 µg/mL
same,clearance,[5],0.036 L/h/kg
same,clearance,[6],0.012 L/h/kg
same,solubility,[7],< 0.1 mg/mL
same,pKa,[8],10.1
same,logP,[9],4.8
same,CHI,[10],2.79
same,CHI,[11],2.77
same,solubility,[12],0.7 mg/mL
same,bioavailability,[14],4.4%
same,solubility,[15],0.5 mg/mL
same,Cmax,Canis familiaris,0.03 µg/mL
same,IC50,Plasmodium falciparum [16],0.007 µM
same,Vd,[17],1.2 L/kg
same,bioavailability,[18],20%
same,CHI,[19],2.75
Cc1[nH]c(C)c(-c2ccc(Oc3cccc(C(F)(F)F)c3)cc2)c(=O)c1Cl,IC50,Plasmodium falciparum [16],0.003 µM
